We go through two molecules from paper PMC3817140, “The Role of the Methyltransferase Domain of Bifunctional Restriction Enzyme RM.BpuSI in Cleavage Activity” (PLoS ONE, 2013).

The test deals with T1, RM.BpuSI (Bacillus pumilus, UniProt G1K3S1).
T1 construct: full-length (REase, helical connector, MTase domain, TRD); recombinant in E. coli ER3081, no tag told; treated with substrate DNA to remove SAM
T1 sequence (G1K3S1 1-878): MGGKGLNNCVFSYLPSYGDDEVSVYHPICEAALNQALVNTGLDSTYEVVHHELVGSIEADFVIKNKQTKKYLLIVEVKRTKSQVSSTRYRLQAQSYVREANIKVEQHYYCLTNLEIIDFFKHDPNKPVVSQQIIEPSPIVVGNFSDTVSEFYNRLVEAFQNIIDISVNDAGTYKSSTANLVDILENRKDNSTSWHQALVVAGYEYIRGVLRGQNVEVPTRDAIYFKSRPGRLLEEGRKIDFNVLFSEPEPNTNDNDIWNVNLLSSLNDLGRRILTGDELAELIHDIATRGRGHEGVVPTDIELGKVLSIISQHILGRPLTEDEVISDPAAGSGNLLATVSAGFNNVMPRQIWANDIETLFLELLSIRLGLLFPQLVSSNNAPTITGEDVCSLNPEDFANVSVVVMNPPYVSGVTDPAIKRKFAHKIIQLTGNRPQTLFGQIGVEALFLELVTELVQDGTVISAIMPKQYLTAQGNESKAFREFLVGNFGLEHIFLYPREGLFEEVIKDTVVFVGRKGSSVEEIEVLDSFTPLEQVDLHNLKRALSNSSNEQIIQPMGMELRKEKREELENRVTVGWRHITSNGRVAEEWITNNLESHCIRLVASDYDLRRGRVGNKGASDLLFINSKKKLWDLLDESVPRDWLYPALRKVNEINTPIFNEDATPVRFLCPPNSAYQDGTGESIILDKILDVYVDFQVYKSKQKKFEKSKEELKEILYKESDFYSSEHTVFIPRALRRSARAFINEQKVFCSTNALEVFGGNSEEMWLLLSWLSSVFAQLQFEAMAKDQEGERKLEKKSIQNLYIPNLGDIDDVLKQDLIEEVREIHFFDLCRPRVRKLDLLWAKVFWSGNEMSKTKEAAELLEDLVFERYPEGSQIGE
The experiment in a line: ANS fluorescence titration. It counts as binding.

By Kd is commonly meant the free concentration of one partner at which half of the binding sites on the other are occupied at equilibrium, for simple one-to-one binding. A higher Kd goes with lower affinity.

Take `C[S+](CC[C@H](N)C(=O)O)C[C@H]1O[C@@H](n2cnc3c(N)ncnc32)[C@H](O)[C@@H]1O` (some centres unmarked) [SAM]: the affinity, expressed as Kd, was 76.4 ± 18.2 µM. In the case of `Nc1ncnc2c1ncn2[C@@H]1O[C@H](C[C@@H](N)CC[C@H](N)C(=O)O)[C@@H](O)[C@H]1O` [sinefungin] it was 71.1 ± 14.2 µM.
